# Laboratory results: patent EP0819136B1, “MDP DERIVATIVES AND CONJUGATES HAVING HAEMATOPOIETIC FUNCTION STIMULATING ACTIVITY, AND COMPOSITIONS CONTAINING SAME” (VACSYN S.A., priority 1995, dated 1996)
# Assays:
# [1] = test system: myélocytes; experiment: Comparison of oral Muradimétide and MDPA on myelocyte count after i.v. AZT (Example 10, figure 8); assay type: in vivo, souris swiss femelles; conditions: AZT 40 mg/kg i.v. days 0-3; MDPA 25 mg/kg p.o. 4 h before AZT
# Description: La figure 8 représente l'effet d'un traitement per os des souris avec du Muradimétide sur le changement de la numération myélocyte dans le sang circulant induite suite à une administration intra-veineuse d'AZT, deux dérivés de MDP étant comparés : le MDPA (Nac-Mur-L-ALa-D-Glu) et le Muradimétide.
# Le dérivé utilisé pour mettre en évidence l'effet particulier du Muradimétide est le MDPA. La figure 8 indique l'effet sur des souris d'un traitement per os sur les changements de la numération de myélocyte induite suite à une administration intraveineuse d'AZT. Dans cette expérience, les souris swiss femelles ont été traitées de façon intraveineuse avec 40 mg par kg d'AZT aux jours 0, 1, 2 et 3. Des groupes de 5 souris ont reçu aux mêmes quatre jours et 4 heures avant l'AZT soit de l'eau physiologique, soit du MDPA à la dose de 25 mg par kg ou du Muradimétide par voie orale à la dose de 25 mg par kg. Les comptages de myélocytes ont été réalisés aux jours 0, 2, 3, 4 et 8. Les étoiles au-dessus des histogrammes ont la même signification que dans les diagrammes précédents.
# [2] = test system: myélocytes circulants; experiment: Circulating myelocytes during two weeks of oral treatment, 4 days per week (Example 4, figure 11); assay type: in vivo, souris; conditions: p.o. days 0, 1, 2, 3 and 7, 8, 9, 10; MDM 25 mg/kg, AZT 50 mg/kg or both
# Method: La figure 11 représente l'effet d'un traitement per os de souris pendant deux semaines consécutives (4 jours par semaine) avec l'AZT, le Muradimétide ou le mélange des deux sur le nombre des myélocytes circulants.
# La figure 11 montre l'effet d'un traitement par le MDM à 25 mg/kg (X), de l'AZT à 50 mg/kg (O) et du mélange des deux (□) sur le comptage des myélocytes de souris traitées pendant 2 semaines aux jours 0, 1, 2, 3 de la première semaine et 7, 8, 9, 10 de la deuxième semaine. […] Si l'effet est surtout marqué au niveau de la première semaine, cela montre que le traitement nécessite un certain espace de temps entre les différents cycles de traitement et que des traitements répétés pourraient, le cas échéant, être utiles.
# [3] = test system: globules rouges et les plaquettes; experiment: Red blood cell and platelet counts after 7 days of oral AZT, Muradimétide or both (Example 3, figures 9 and 10); assay type: in vivo, souris femelles BALB/c; conditions: p.o. once daily for 7 days: 100 mg/kg AZT, 50 mg/kg muradimétide, or both simultaneously; counts up to day 10
# Description: La figure 9 représente l'effet du traitement per os de souris BALB/c pendant 7 jours consécutifs avec de l'AZT, du Muradimétide (MDM) ou un mélange de ceux-ci sur la numération plaquettaire.
# La figure 10 représente l'effet du traitement per os de souris BALB/c pendant 7 jours consécutifs avec de l'AZT, du Muradimétide (MDM) ou un mélange de ceux-ci sur le nombre des globules rouges.
# L'effet d'un traitement de 7 jours sur le nombre de globules rouges et de plaquettes est indiqué dans les figures 9 et 10 respectivement. Les numérations sont représentées en pourcentage de celles obtenues au jour 0. Des souris femelles BALB/c (5 par groupe) sont traitées une fois par jour pendant 7 jours consécutifs par 100 mg/kg d'AZT (Δ), 50 mg/kg de muradimétide (D) ou simultanément par 100 mg/kg d'AZT et 50 mg/kg de muradimétide (O). Les comptages de plaquettes ou de globules rouges ont été réalisés au jour 0 et jusqu'à 10 jours suivant le début du traitement. […] La tendance à l'augmentation de leur nombre apparaît entre les jours 4 et 5. En revanche, l'anémie qui pourrait être observée dans les groupes traités pourrait être due aux saignements répétés; néanmoins la vitesse et l'importance de l'anémie est grandement réduite chez les animaux traités avec le mélange des deux produits en comparaison avec celui observé dans le groupe traité par l'AZT seul. […]
Structure (SMILES),effet antimyélotoxique et mobilisation des CSH dans la circulation sanguine [1],effet sur la mobilisation des CHS (comptage des myélocytes) [2],toxicité sur les plaquettes [3]
"CC(=O)N[C@H]1C(O)O[C@H](CO)[C@@H](O)[C@@H]1O[C@H](C)C(=O)N[C@@H](C)C(=O)N[C@H](CCC(=O)O)C(=O)O (stereo partly drawn) [MDPA, Nac-Mur-L-ALa-D-Glu]",n'étant pas retrouvé,–,–
"Cc1cn([C@H]2C[C@H](N=[N+]=[N-])[C@@H](CO)O2)c(=O)[nH]c1=O [AZT, 3'-Azido-3'-desoxy-thymidine, reference compound]",–,strictement aucun effet,Aucune toxicité
